Test results: patent US8030478B2, “Method for nucleic acid replication and novel artificial base pairs” (priority 2005, dated 2011)
Like-named read-outs stand apart in the source and are kept apart here.

Legend:
T7 RNA polymerase = T7 RNA polymerase (Escherichia phage T7, UniProt P00573); conditions: 1 mM substrate, 1 mM NTPs, template DNA containing Ds, 37° C., 3 hours; FIG. 49
Procedure: More specifically, experimental procedures as shown below were used. […] After reaction at 37° C. for 3 hours, 10 M urea (20 μL) was added to this solution to stop the reaction.

[1] = target: Klenow fragment lacking 3′-5′ exonuclease activity (Escherichia coli, UniProt P00582, D355A/E357A); conditions: template DNA (55-mer) containing Ds, 10 μM substrate, 37° C., 5 minutes; FIG. 48
Klenow fragment lacking 3′-5′ exonuclease activity, sequence (P00582 324-928 D355A/E357A): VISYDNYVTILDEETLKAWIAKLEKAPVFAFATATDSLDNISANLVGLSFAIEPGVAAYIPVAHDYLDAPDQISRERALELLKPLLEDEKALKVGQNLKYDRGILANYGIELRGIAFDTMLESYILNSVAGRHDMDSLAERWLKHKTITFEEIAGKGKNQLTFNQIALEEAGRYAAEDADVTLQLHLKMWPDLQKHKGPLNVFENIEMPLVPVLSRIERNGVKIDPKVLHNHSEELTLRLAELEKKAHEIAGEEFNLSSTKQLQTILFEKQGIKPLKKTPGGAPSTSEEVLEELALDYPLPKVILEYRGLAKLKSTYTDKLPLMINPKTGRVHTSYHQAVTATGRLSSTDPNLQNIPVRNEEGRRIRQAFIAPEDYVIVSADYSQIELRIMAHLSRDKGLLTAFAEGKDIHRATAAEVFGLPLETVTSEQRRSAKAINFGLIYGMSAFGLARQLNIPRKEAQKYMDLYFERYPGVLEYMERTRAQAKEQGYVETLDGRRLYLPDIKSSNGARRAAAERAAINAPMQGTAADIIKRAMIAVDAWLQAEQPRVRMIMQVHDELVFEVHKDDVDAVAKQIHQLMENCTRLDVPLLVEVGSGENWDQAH
Procedure: More specifically, experimental procedures as shown below were used. […] The reaction was performed using 200 nM Template-Primer, 100 μM or 200 μM dNTPs (N=A, G, C, T), 10 μM NH2-hx-dPnTP or FAM-hx-dPnTP, and 0.1 U/μl Klenow fragment (GE Health Care) in 50 mM Tris-HCl (pH 7.5), 10 mM MgCl2, 1 mM DTT, 0.05 mg/ml BSA. After reaction at 37° C. for 5 minutes, 10 M urea (20 μl) was added to this solution to stop the reaction. […] Bands of the reaction products were detected with a fluorescence image analyzer (Molecular Imager, Bio-Rad, FAM detection mode).

[2] = target: T1, Klenow fragment lacking exonuclease activity (KF exo−) (Escherichia coli, UniProt P00582, D355A/E357A); type: biochemical, E. coli; conditions: for Efficiency (Vmax/KM) / Km / Vmax: 37° C.
T1 construct: enzyme solution of the Klenow fragment lacking exonuclease activity (KF exo^−, Amersham USB); purchased Amersham USB
T1 sequence (P00582 324-928 D355A/E357A): as above
Procedure: The single nucleotide insertion experiment was performed as described in documents (Non-patent Documents 30-32). A primer (20-mer) labeled with 6-carboxylfluorescein at the 5′-end was annealed with template DNA (35-mer) by heating at 95° C. and slow cooling to 4° C. in 100 mM Tris-HCl (pH 7.5) buffer containing 20 mM MgCl2, 2 mM DTT and 0.1 mg/ml bovine serum albumin. The primer-template duplex solution (10 μM, 5 μl) was mixed with 2 μl enzyme solution of the Klenow fragment lacking exonuclease activity (KF exo^−, Amersham USB). After the mixture was incubated for 2 minutes, each dNTP solution (3 μl) was added to this solution to start the reaction at 37° C. The amount of the enzyme used (5-50 nM), the reaction time (1-35 minutes) and the gradient concentration of each dNTP (0.3-1500 μM) were adjusted to ensure conditions giving 25% or less products. The reaction was stopped with 10 μl stop solution (95% formamide and 20 mM EDTA), and the mixture was immediately heated at 75° C. for 3 minutes. The diluted products were analyzed in an automated ABI377 DNA sequencer equipped with GeneScan software (version 3.0) (Non-patent Document 32). The relative velocity (v0) was calculated by dividing the extent of reaction by the reaction time, and then normalized to the enzyme concentration (20 nM) for the various enzyme concentrations used. Kinetic parameters (KM and Vmax) were obtained from Hanes-Woolf plots of [dNTP]/v0 against [dNTP].
Each parameter was averaged from 3 to 8 data sets.

[3] = system: Klenow fragment (KF exo+ / KF exo−); conditions: dDsTPN opposite template Pa, dATPN opposite template T; FIG. 2e, Lanes 2 and 14
Procedure: (§1) [FIG. 2d] FIGS. 2a to 2e show single nucleotide insertion and primer extension experiments with an unnatural base pair system based on Ds-Pa base pairing.
(§2) [FIG. 2e] FIGS. 2a to 2e show single nucleotide insertion and primer extension experiments with an unnatural base pair system based on Ds-Pa base pairing.
(§3) A 5′-^32P-labeled primer (23-mer) and template DNA (35-mer) were annealed into duplex form in 20 mM Tris-HCl (pH 7.5) buffer containing 14 mM MgCl2 and 0.2 mM DTT. The duplex solution (400 nM, 5 μl) was mixed with each 5× dNTP solution (2 μl) on ice, followed by addition of 3 μl enzyme solution containing KF exo^− (1 unit) or KF exo^+ (1 unit) (TAKARA) to start the reaction. After the reaction solution was incubated at 37° C. for 3 or 5 minutes, a dye solution (10 μl) containing 89 mM Tris-borate, 2 mM EDTA, 10 M urea and 0.05% BPB was added to stop the reaction. […] The products on the gel were analyzed with a bio-imaging analyzer (model BAS2500, Fuji).

[4] = target: Klenow fragment (KF exo+ / KF exo−) (Escherichia coli, UniProt P00582); conditions: dPaTP and natural substrates in the presence of the named substrate (0.5 or 1 molar equivalent of dPaTP); FIG. 2d
Klenow fragment (KF exo+ / KF exo−) (Escherichia coli, UniProt P00582), sequence (P00582 324-928): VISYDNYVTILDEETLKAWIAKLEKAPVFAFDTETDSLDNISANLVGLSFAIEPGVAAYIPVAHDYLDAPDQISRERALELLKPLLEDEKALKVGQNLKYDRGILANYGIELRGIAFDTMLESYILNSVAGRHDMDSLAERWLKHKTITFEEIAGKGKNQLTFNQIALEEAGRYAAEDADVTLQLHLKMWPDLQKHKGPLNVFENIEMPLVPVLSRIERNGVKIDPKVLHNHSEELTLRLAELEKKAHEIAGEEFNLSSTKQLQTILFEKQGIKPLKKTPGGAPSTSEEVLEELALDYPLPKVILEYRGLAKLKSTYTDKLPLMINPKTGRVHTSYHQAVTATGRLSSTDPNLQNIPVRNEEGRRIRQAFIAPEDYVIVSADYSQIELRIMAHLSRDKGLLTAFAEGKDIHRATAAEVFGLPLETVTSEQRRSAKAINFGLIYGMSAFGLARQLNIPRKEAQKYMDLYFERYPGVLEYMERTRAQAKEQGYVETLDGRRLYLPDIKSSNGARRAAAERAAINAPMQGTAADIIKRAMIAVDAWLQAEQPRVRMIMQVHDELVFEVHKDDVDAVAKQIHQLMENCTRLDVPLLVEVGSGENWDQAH
Procedure: as §1, §2, §3

T7 RNA polymerase, sequence (P00573 whole entry): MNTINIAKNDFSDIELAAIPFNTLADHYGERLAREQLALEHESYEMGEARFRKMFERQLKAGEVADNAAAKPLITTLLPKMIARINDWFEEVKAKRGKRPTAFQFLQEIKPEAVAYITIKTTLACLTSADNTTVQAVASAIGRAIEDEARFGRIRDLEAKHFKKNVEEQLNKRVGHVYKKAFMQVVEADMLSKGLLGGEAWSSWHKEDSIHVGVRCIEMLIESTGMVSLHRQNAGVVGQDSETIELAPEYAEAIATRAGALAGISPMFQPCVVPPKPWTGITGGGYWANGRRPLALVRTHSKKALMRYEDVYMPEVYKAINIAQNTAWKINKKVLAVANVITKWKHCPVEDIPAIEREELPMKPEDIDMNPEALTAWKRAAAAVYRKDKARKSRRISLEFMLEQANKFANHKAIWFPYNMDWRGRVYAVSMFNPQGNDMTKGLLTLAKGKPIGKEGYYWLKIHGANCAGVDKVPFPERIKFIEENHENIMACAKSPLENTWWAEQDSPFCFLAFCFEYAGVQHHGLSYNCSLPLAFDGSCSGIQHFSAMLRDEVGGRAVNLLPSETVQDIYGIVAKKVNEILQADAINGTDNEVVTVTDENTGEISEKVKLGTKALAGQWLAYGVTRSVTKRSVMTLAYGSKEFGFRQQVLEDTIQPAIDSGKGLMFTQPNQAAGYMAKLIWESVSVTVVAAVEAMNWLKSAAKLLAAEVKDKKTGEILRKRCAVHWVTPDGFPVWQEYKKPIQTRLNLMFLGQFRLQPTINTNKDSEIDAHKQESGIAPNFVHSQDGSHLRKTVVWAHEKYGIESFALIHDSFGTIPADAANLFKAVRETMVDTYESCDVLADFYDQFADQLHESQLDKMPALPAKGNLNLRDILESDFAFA

For O=Cc1cc(C#CCNC(=O)CCCCCNC(=O)c2ccc3c(c2)C(=O)OC32c3ccc(O)cc3Oc3cc(O)ccc32)cn1[C@@H]1O[C@H](COP(=O)(O)OP(=O)(O)OP(=O)(O)O)[C@@H](O)[C@H]1O [FAM-hx-PaTP, 1-(β-D-Ribofuranosyl)-4-[3-(6-(fluorescein-5-carboxamido)hexanamido)-1-propynyl]pyrrole-2-carbaldehyde 5′-triphosphate], the “transcription efficiency compared to control with natural substrates alone” value (T7 RNA polymerase) was 14%.

O=C(CCCCCNC(=O)c1ccc2c(c1)C(=O)OC21c2ccc(O)cc2Oc2cc(O)ccc21)NCC#Cc1cc([N+](=O)[O-])n([C@H]2C[C@H](O)[C@@H](COP(=O)(O)OP(=O)(O)OP(=O)(O)O)O2)c1 [FAM-hx-dPnTP, 1-(2-Deoxy-β-D-ribofuranosyl)-4-[3-[6-(fluorescein-5-carboxamido)hexanamido]-1-propynyl]-2-nitropyrrole 5′-triphosphate] was tested, and the “incorporation into DNA through primer extension” value [1] was “incorporated into DNA opposite Ds in the template DNA”.

NCCCCCC(=O)NCC#Cc1cc([N+](=O)[O-])n([C@H]2C[C@H](O)[C@@H](COP(=O)(O)OP(=O)(O)OP(=O)(O)O)O2)c1 [NH2-hx-dPnTP] was tested, and the “incorporation into DNA through primer extension” value [1] was “incorporated into DNA opposite Ds in the template DNA”.

In the case of CN(C)c1ccc2c(c1)Oc1cc(N(C)C)ccc1C21OC(=O)c2cc(C(=O)NCCCCCC(=O)NCC#Cc3cc(C=O)n([C@@H]4O[C@H](COP(=O)(O)OP(=O)(O)OP(=O)(O)O)[C@@H](O)[C@H]4O)c3)ccc21 [TAMRA-hx-PaTP, 1-(β-D-Ribofuranosyl)-4-[3-(6-(tetramethylrhodamine-5-carboxamido)hexanamido)-1-propynyl]pyrrole-2-carbaldehyde 5′-triphosphate], the “transcription efficiency compared to control with natural substrates alone” value (T7 RNA polymerase) was 10%.

NP(=O)(O)OP(=O)(O)OP(=O)(O)OC[C@H]1O[C@@H](n2cnc3c(-c4cccs4)ccnc32)C[C@@H]1O [dDsTPN, 7-(2-Thienyl)-3-(2-deoxy-β-D-ribofuranosyl)-3H-imidazo[4,5-b]pyridine 5′-γ-amidotriphosphate] was tested, and the “incorporation efficiency opposite template Pa relative to that of dATPN opposite template Pa” value ([2]; KF exo−, template Pa) was 37 fold, the “Efficiency (Vmax/KM)” value ([2]; template (N) = A, temp35N-2) was 1.9 × 10^3 % min^−1M^−1 and the Km ([2]; template (N) = A, temp35N-2) was 270 µM. For the same compound, the Vmax ([2]; template (N) = A, temp35N-2) was 0.52 % min^−1, the “Efficiency (Vmax/KM)” value ([2]; template (N) = C, temp35N-2) was 1.5 × 10^3 % min^−1M^−1 and the Km ([2]; template (N) = C, temp35N-2) was 440 µM. The Vmax ([2]; template (N) = C, temp35N-2) was 0.64 % min^−1, the “Efficiency (Vmax/KM)” value ([2]; template (N) = Ds, temp35N-1) was 9.9 × 10^3 % min^−1M^−1 and the Km ([2]; template (N) = Ds, temp35N-1) was 79 µM. The Vmax ([2]; template (N) = Ds, temp35N-1) was 0.78 % min^−1, the “Efficiency (Vmax/KM)” value ([2]; template (N) = G, temp35N-2) was 1.9 × 10^3 % min^−1M^−1 and the Km ([2]; template (N) = G, temp35N-2) was 300 µM. For the same compound, the Vmax ([2]; template (N) = G, temp35N-2) was 0.58 % min^−1, the “Efficiency (Vmax/KM)” value ([2]; template (N) = Pa, temp35N-2) was 6.7 × 10^4 % min^−1M^−1 and the Km ([2]; template (N) = Pa, temp35N-2) was 180 µM. The Vmax ([2]; template (N) = Pa, temp35N-2) was 12 % min^−1, the “Efficiency (Vmax/KM)” value ([2]; template (N) = Pa′, temp35N-2) was 5.7 × 10^4 % min^−1M^−1 and the Km ([2]; template (N) = Pa′, temp35N-2) was 230 µM. For the same compound, the Vmax ([2]; template (N) = Pa′, temp35N-2) was 13 % min^−1, the “Efficiency (Vmax/KM)” value ([2]; template (N) = T, temp35N-2) was 3.5 × 10^3 % min^−1M^−1 and the Km ([2]; template (N) = T, temp35N-2) was 480 µM. The Vmax ([2]; template (N) = T, temp35N-2) was 1.7 % min^−1, the “primer extension after incorporation of the substrate” value [3] was “proceeded efficiently” and the “primer extension with KF exo+ on Ds-containing template” value [4] was “proceeded without being inhibited”.
